Format in all cases: binding
Assay [1] has as its target T1, HeLa cell extract proteins (Homo sapiens, UniProt P40939).
T1 construct: endogenous in cells; host or cells: HeLa cell extract

For assay [2], the target named is T2, HeLa cell extract proteins (Homo sapiens, UniProt P49915).
T2 construct: endogenous in cells; host or cells: HeLa cell extract

The target of assay [3] is T3, HeLa cell extract proteins (Homo sapiens, UniProt P52209).
T3 construct: endogenous in cells; host or cells: HeLa cell extract
T3 sequence (P52209 1-483): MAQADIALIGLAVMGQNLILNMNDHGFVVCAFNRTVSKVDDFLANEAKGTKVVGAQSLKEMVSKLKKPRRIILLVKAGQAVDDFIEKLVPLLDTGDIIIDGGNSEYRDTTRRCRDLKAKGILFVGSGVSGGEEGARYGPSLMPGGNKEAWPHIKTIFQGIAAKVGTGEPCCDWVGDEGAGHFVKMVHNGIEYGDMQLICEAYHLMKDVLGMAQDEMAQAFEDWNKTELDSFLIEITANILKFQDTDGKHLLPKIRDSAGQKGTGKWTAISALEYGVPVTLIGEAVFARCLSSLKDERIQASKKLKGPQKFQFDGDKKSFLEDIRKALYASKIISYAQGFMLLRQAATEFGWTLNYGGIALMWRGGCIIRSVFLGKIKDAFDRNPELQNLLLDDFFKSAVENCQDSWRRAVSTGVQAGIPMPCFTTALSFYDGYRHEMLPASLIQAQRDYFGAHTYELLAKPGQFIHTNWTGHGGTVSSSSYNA

Assay [4] concerns the target T4, HeLa cell extract proteins (Homo sapiens, UniProt Q8IYS1).
T4 construct: endogenous in cells; host or cells: HeLa cell extract
T4 sequence (Q8IYS1 1-436): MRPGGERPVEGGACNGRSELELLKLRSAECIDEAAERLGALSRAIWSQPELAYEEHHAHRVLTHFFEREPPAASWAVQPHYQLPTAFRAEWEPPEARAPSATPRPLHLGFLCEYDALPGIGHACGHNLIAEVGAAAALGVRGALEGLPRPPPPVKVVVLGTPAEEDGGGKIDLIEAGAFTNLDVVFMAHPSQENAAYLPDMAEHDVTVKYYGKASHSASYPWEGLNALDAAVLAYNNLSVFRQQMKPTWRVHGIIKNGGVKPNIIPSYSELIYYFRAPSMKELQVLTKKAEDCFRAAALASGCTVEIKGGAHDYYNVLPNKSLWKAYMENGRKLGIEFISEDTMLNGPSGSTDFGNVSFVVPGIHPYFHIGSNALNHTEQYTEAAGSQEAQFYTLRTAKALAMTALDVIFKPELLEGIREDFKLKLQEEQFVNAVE

In assay [5] the target is T5, HeLa cell extract proteins (Homo sapiens, UniProt Q8NEW0).
T5 construct: endogenous in cells; host or cells: HeLa cell extract
T5 sequence (Q8NEW0 1-376): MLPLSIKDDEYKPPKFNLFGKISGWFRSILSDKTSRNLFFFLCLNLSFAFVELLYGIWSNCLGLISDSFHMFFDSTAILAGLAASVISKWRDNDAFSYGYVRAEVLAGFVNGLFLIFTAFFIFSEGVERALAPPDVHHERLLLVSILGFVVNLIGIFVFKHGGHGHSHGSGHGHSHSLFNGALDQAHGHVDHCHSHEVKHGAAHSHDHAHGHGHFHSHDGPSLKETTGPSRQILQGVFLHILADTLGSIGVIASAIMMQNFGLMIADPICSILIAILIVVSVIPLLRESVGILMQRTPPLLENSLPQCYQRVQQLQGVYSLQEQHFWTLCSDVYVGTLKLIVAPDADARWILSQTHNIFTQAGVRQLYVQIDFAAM

The target in assay [6] is T6, HeLa cell extract proteins (Homo sapiens, UniProt Q92616).
T6 construct: endogenous in cells; host or cells: HeLa cell extract
T6 sequence (Q92616 whole entry): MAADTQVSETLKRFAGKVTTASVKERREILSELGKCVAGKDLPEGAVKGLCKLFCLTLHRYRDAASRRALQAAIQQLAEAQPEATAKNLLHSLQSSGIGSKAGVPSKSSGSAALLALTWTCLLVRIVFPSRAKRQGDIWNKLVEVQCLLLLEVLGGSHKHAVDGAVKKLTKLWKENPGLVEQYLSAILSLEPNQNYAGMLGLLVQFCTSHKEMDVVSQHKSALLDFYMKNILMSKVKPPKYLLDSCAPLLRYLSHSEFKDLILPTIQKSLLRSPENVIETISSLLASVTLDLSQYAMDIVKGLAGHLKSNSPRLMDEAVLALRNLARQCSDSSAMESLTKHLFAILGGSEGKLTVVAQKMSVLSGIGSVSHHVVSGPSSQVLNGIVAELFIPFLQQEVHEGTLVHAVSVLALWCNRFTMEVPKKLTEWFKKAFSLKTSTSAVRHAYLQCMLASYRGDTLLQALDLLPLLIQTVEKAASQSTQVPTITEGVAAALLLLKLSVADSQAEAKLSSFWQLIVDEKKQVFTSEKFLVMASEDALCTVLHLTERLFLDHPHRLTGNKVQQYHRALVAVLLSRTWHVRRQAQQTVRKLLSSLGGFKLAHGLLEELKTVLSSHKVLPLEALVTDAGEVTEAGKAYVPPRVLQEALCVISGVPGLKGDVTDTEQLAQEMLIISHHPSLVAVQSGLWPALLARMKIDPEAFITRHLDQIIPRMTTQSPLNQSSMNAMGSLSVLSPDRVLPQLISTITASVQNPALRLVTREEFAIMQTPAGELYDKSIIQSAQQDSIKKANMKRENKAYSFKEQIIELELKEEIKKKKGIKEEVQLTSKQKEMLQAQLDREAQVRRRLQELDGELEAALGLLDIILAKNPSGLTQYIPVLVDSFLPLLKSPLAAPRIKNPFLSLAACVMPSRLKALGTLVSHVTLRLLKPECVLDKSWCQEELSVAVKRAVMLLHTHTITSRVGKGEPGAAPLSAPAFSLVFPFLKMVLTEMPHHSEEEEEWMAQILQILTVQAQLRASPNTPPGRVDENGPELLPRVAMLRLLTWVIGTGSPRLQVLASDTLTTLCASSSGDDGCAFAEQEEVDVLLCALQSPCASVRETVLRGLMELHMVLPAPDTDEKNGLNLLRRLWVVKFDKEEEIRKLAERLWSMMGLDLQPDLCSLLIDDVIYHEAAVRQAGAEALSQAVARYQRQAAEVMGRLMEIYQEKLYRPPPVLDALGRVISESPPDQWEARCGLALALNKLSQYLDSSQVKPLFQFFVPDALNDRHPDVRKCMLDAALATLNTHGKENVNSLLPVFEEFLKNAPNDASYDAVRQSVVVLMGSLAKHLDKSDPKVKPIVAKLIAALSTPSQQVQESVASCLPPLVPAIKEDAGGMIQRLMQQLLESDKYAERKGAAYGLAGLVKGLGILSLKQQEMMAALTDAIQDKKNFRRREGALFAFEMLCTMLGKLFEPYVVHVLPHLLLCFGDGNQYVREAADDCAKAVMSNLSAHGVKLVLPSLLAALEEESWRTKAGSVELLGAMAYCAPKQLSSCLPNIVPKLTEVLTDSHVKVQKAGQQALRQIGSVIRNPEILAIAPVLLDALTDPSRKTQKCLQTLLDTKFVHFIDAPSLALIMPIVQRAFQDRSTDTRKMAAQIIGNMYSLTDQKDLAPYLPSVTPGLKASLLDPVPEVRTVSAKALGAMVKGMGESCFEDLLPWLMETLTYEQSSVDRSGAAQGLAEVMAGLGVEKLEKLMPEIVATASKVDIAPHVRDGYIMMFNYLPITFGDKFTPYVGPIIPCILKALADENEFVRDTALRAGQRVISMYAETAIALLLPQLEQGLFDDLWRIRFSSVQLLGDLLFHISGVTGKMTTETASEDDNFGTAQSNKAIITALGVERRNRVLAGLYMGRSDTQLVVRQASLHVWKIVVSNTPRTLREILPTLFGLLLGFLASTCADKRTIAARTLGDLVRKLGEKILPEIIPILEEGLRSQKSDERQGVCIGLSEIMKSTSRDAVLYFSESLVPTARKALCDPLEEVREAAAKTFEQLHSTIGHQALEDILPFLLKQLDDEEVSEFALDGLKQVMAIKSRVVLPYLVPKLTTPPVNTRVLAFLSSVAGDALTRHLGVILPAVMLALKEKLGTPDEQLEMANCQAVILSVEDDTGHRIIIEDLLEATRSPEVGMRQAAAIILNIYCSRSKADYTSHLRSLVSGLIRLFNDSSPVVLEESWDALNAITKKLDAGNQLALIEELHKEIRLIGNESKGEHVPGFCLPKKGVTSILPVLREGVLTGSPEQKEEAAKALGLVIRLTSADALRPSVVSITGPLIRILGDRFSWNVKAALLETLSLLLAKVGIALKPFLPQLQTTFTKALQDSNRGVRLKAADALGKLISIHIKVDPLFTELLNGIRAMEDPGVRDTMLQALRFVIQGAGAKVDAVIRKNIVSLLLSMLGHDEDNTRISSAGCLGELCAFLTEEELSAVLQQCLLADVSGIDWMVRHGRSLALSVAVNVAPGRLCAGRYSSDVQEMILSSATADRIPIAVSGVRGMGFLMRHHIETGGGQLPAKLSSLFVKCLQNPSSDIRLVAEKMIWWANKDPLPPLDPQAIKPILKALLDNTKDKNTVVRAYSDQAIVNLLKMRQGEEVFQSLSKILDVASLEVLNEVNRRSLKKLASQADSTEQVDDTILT

Assay [7] deals with T7, HeLa cell extract proteins (Homo sapiens, UniProt Q92734).
T7 construct: endogenous in cells; host or cells: HeLa cell extract

Assay [8] has as its target T8, HeLa cell extract proteins (Homo sapiens, UniProt Q96P70).
T8 construct: endogenous in cells; host or cells: HeLa cell extract

The target of assay [9] is T9, HeLa cell extract proteins (Homo sapiens, UniProt Q9BW27).
T9 construct: endogenous in cells; host or cells: HeLa cell extract
T9 sequence (Q9BW27 1-656): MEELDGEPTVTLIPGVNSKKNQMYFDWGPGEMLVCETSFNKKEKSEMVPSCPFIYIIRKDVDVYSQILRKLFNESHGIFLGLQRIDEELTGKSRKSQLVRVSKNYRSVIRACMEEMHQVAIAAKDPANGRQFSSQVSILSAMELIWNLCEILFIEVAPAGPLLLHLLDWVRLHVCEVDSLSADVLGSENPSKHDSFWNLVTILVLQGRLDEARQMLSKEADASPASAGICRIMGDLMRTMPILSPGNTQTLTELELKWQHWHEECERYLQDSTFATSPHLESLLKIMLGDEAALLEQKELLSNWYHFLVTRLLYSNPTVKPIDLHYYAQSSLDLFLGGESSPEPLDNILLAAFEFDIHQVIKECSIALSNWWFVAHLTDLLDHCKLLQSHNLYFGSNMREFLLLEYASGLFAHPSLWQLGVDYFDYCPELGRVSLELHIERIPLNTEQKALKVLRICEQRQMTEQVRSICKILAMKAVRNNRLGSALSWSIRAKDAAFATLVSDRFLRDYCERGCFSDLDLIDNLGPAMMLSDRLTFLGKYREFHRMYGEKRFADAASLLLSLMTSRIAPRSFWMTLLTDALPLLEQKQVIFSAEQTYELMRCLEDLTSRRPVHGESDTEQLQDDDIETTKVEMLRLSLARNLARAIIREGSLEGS

In assay [10] the target is T10, HeLa cell extract proteins (Homo sapiens, UniProt Q9UKU7).
T10 construct: endogenous in cells; host or cells: HeLa cell extract
T10 sequence (Q9UKU7 23-415): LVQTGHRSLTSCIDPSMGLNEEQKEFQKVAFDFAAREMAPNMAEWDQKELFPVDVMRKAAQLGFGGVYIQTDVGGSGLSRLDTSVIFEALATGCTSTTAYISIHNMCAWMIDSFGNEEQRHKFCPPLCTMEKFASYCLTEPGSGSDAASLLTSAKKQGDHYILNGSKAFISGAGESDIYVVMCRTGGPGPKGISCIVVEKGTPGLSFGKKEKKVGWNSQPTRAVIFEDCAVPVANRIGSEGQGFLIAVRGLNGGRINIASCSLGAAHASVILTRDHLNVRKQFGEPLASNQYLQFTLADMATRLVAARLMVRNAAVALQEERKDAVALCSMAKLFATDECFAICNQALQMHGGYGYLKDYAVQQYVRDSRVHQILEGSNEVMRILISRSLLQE

Setting [11] is: HeLa, protein PGD (56 KDA PROTEIN.).
[12] abbreviates: HeLa, protein SLC30A7 (SOLUTE CARRIER FAMILY 30 MEMBER 7).

Like-named read-outs stand apart in the source and are kept apart here.

T2 sequence (P49915 whole entry): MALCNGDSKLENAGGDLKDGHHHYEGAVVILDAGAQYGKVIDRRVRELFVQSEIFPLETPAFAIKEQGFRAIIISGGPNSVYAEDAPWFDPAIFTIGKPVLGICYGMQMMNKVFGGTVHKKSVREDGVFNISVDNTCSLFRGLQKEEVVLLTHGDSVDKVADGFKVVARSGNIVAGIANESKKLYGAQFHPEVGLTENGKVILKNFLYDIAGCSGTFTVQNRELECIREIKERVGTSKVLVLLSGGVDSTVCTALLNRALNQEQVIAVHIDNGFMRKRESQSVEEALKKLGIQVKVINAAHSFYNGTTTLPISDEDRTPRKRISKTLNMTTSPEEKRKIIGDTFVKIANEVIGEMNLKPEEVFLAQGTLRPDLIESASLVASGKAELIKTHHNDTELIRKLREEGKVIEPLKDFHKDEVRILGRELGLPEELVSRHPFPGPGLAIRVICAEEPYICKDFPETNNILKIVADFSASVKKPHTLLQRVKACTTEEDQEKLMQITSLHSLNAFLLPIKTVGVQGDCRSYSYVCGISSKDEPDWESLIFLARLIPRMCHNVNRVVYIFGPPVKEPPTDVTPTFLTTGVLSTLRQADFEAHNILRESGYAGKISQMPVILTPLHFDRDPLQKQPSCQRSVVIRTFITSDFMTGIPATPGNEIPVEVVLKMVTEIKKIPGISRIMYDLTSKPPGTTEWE
T8 sequence (Q96P70 whole entry): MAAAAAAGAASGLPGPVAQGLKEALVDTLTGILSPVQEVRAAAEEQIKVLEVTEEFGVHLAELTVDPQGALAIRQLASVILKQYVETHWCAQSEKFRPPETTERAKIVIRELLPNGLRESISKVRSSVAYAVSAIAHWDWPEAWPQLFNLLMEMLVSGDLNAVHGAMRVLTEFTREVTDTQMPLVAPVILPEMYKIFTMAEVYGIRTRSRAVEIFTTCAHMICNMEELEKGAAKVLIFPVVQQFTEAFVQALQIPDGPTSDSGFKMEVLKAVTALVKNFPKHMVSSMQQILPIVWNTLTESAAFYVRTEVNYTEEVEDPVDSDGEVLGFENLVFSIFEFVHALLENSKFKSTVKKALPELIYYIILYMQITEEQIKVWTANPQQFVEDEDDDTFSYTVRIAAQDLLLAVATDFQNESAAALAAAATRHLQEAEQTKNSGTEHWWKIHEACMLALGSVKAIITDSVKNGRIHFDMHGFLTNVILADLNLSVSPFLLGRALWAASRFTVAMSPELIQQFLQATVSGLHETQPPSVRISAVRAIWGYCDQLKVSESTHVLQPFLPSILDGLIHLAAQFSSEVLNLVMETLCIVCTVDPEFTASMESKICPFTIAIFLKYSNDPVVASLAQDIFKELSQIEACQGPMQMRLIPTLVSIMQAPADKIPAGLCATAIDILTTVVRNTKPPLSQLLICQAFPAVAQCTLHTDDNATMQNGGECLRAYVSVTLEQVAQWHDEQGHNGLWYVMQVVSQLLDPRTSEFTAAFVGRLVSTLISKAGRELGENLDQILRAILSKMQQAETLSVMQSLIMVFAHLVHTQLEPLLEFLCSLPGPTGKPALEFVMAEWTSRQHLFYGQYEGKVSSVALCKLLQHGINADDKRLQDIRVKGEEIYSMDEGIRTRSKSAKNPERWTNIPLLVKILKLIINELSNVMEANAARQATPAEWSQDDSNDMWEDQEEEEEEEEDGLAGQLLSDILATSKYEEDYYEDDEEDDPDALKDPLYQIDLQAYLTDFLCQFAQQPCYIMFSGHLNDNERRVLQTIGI
T1 sequence (P40939 37-763): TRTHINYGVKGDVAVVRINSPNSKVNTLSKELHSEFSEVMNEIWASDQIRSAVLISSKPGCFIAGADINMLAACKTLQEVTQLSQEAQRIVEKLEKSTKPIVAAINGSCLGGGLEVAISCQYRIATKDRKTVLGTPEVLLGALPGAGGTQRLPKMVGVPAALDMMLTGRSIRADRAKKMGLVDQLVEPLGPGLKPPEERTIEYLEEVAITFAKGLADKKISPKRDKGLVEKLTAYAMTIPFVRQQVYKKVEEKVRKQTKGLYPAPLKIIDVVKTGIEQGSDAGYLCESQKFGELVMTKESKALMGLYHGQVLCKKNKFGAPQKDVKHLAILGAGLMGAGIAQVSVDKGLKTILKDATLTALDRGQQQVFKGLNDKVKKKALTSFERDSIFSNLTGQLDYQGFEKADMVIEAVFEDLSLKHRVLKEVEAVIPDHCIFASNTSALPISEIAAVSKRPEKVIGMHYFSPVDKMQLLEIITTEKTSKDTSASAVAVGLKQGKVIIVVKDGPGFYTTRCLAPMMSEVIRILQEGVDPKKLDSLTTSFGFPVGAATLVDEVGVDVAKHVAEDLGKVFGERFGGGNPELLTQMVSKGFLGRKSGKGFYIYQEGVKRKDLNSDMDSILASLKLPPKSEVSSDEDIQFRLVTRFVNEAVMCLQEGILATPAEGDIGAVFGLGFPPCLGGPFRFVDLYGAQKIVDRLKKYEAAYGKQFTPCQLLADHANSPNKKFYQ

Turning to `CCCCCCOc1cccc(Cc2cnc(N)nc2N)c1` [compound 2], the “fold changes relative to vehicle control” value in [1] (protein HADHA, HeLa) was 1.45; in assay [2] (protein GMPS, HeLa) it was 1.94; in assay [3] (setting [11]) it was 2.49 fold; in assay [4] (captured protein PM20D2, HeLa), 0.9; in [5] (HeLa, protein SLC30A7) it was 1; in assay [6] (HeLa, protein GCN1L1), 1.14. The “fold changes relative to vehicle control” value in [7] (protein TFG, HeLa) stood at 1.16; in assay [8] (captured protein IPO9, HeLa), 1.14; in assay [9] (captured protein NUP85, HeLa) it was 0.96; in [10] (protein ACAD8, HeLa) it was 1.19.
As to `NCCOCCOCC(=O)Nc1nc2ncc(CNc3ccc(C(=O)NC(CCC(=O)O)C(=O)O)cc3)nc2c(=O)[nH]1` (stereo not shown) [compound 6], the “fold changes relative to vehicle control” value in [1] (HeLa, protein HADHA) stood at 1.05; in [2] (HeLa, protein GMPS) it was 1.24; in [3] (protein PGD, HeLa), 1.35; in assay [4] (HeLa, protein PM20D2), 1.05; in [5] (setting [12]) it was 0.94; in [6] (HeLa, captured protein GCN1L1), 1.15. In addition, the “fold changes relative to vehicle control” value in [7] (HeLa, captured protein TFG) is recorded as 1.01; in [8] (HeLa, protein IPO9), 1; in [9] (protein NUP85, HeLa) it was 0.93; in assay [10] (HeLa, protein ACAD8) it was 0.75.
With `CCCCCCOc1ccc(Cc2cnc(N)nc2N)cc1` [compound 1], the “fold changes relative to vehicle control” value in [1] (protein HADHA, HeLa) is on record as 1; in assay [2] (protein GMPS, HeLa), 1.37; in assay [3] (setting [11]), 1.44 fold; in [4] (captured protein PM20D2, HeLa), 1.09; in assay [5] (HeLa, protein SLC30A7) it was 1.06; in assay [6] (HeLa, protein GCN1L1), 1.07. In addition, the “fold changes relative to vehicle control” value in assay [7] (protein TFG, HeLa) worked out at 0.96; in [8] (captured protein IPO9, HeLa), 0.89; in assay [9] (captured protein NUP85, HeLa), 0.93; in assay [10] (protein ACAD8, HeLa), 1.11.
In the case of `Nc1nc2c(c(=O)[nH]1)N(C=O)C(CNc1ccc(C(=O)N[C@@H](CCC(=O)O)C(=O)O)cc1)CN2` (stereo partly shown) [LEU, leucovorin], the “fold changes relative to vehicle control” value in assay [1] (HeLa, protein HADHA) came out at 0.9; in [2] (HeLa, protein GMPS), 0.93; in [3] (protein PGD, HeLa), 0.97; in [4] (HeLa, protein PM20D2) it was 0.9; in [5] (setting [12]) it was 1.06; in assay [6] (HeLa, captured protein GCN1L1) it was 1.04. For the same molecule, the “fold changes relative to vehicle control” value in assay [7] (HeLa, captured protein TFG) is 1.01; in [8] (HeLa, protein IPO9) it was 0.87; in assay [9] (protein NUP85, HeLa), 0.82; in assay [10] (HeLa, protein ACAD8), 0.79.
Consider `NCCCNc1ccc(C(=O)NC(CCC(=O)O)C(=O)O)cc1` (stereo not shown) [compound 7], for which the “fold changes relative to vehicle control” value is on record as 0.99 in assay [1] (HeLa, protein HADHA); 1.11 in assay [2] (HeLa, protein GMPS); 0.86 in assay [3] (protein PGD, HeLa); 0.89 in [4] (HeLa, protein PM20D2); 1 in [5] (setting [12]); 1.15 in assay [6] (HeLa, captured protein GCN1L1). Further, the “fold changes relative to vehicle control” value is reported as 1.06 in assay [7] (HeLa, captured protein TFG); 0.94 in assay [8] (HeLa, protein IPO9); 0.95 in assay [9] (protein NUP85, HeLa); 0.77 in [10] (HeLa, protein ACAD8).
Turning to `Nc1nc2[nH]cc(CCc3ccc(C(=O)N[C@@H](CCC(=O)O)C(=O)O)cc3)c2c(=O)[nH]1` [PTX, pemetrexed], the “fold changes relative to vehicle control” value in assay [1] turned out to be 0.89; in assay [2], 0.99; in [3], 1.17; in assay [4], 1; in assay [5], 0.97; in assay [6], 1.02. Further, the “fold changes relative to vehicle control” value in assay [7] came out at 1.05; in assay [8] it was 0.91; in assay [9], 0.9; in assay [10], 0.83.
Regarding `Nc1nc2cccc(-c3ccccc3)c2n1Cc1ccc(Cl)c(Cl)c1` [compound 3], the “fold changes relative to vehicle control” value stood at 1.07 in assay [1] (protein HADHA, HeLa); 0.96 in assay [2] (protein GMPS, HeLa); 0.86 fold in [3] (setting [11]); 1.1 in [4] (captured protein PM20D2, HeLa); 1.07 in assay [5] (HeLa, protein SLC30A7); 1.16 in assay [6] (HeLa, protein GCN1L1). Further, the “fold changes relative to vehicle control” value in assay [7] (protein TFG, HeLa) is recorded as 1.02; in assay [8] (captured protein IPO9, HeLa), 1.07; in assay [9] (captured protein NUP85, HeLa) it was 0.9; in assay [10] (protein ACAD8, HeLa), 1.13.

These data come from publication PMC6199744, “Development of Chemical Proteomics for the Folateome and Analysis of the Kinetoplastid Folateome” (ACS Infectious Diseases, 2018).
